# Experimental data taken from ChEMBL document CHEMBL1136305, “Structure-activity relationships within a series of caspase inhibitors: effect of leaving group modifications” (Bioorg Med Chem Lett, 2003).
# Experiments:
# Caspase-3 (Homo sapiens) = target: T1, Caspase-3 (Homo sapiens) (UniProt P42574); assay: Inhibitory activity against caspase-3 (Csp-3)
# T1 sequence (whole entry): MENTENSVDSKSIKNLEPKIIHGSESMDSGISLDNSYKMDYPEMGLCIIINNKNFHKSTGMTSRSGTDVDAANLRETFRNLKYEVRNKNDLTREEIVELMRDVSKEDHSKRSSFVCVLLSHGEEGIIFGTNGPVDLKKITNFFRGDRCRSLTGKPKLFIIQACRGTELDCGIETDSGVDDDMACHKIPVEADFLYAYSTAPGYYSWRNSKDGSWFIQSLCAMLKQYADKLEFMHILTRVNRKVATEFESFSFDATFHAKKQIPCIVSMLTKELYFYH
# Caspase-1 (Mus musculus) = target: T2, Caspase-1 (Mus musculus) (UniProt P29452); assay: Inhibitory activity against murine caspase-1
# T2 sequence (whole entry): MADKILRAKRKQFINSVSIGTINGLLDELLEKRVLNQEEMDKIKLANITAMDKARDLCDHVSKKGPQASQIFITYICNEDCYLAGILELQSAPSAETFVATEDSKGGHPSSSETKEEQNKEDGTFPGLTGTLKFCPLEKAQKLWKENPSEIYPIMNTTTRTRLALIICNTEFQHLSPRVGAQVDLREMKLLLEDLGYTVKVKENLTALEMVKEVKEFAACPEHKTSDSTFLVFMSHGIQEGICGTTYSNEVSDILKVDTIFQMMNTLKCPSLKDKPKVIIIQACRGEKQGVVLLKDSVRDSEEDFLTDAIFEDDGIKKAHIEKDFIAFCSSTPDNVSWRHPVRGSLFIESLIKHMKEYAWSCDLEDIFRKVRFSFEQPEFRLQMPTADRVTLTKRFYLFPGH
# Caspase-8 (Homo sapiens) = Caspase-8 (Homo sapiens) (UniProt Q14790); assay: Inhibitory activity against caspase-8 (Csp-8)
# Sequence of Caspase-8 (Homo sapiens) (Q14790 217-374 limits assumed): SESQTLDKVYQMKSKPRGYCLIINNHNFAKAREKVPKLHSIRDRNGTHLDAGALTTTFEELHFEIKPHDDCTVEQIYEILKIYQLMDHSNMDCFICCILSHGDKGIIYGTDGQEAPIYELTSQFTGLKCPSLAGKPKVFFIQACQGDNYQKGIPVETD
# Sequence of Caspase-8 (Homo sapiens) (Q14790 385-479 limits assumed): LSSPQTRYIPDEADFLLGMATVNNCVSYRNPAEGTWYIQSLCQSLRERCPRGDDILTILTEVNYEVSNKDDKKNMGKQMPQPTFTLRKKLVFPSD
# Jurkat = assay: Cellular assay in a Fas-induced model of apoptosis in Jurkat cells; assay type: functional, cell-based; conditions: Homo sapiens
# Caspase-6 (Homo sapiens) = target: T3, Caspase-6 (Homo sapiens) (UniProt P55212); assay: Inhibitory activity against caspase-6 (Csp-6)
# T3 sequence (whole entry): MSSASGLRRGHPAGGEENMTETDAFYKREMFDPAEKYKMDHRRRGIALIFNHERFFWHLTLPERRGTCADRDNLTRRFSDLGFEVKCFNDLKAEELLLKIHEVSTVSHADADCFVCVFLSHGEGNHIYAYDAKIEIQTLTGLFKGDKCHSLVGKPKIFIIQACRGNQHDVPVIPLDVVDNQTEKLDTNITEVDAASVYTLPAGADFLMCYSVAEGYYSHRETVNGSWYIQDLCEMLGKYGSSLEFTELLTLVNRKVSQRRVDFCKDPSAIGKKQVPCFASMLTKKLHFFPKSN
# [1] = Cellular assay in a model of neuronal apoptosis involving cortical neurons exposed to concanavalin A; assay type: functional
# Homo sapiens = organism: Homo sapiens; assay: Cellular assay in an inflammation model measuring IL1-beta secretion from isolated human monocytes induced with Staph A; assay type: functional
Compound,k3/Ki (Caspase-3 (Homo sapiens)),k3/Ki (Caspase-1 (Mus musculus)),k3/Ki (Caspase-8 (Homo sapiens)),IC50 (Jurkat),k3/Ki (Caspase-6 (Homo sapiens)),IC50 [1],IC50 (Homo sapiens)
CC(C)[C@H](NC(=O)COc1cccc2ccccc12)C(=O)N[C@@H](CC(=O)O)C(=O)COc1ccc(C(=O)c2ccccc2)cc1,17700 M⁻¹ s⁻¹,1520 M⁻¹ s⁻¹,21 M⁻¹ s⁻¹,> 100 µM,–,–,–
CC(C)[C@H](NC(=O)COc1cccc2ccccc12)C(=O)N[C@@H](CC(=O)O)C(=O)COc1ccc(Oc2ccccc2)cc1,9520 M⁻¹ s⁻¹,1900 M⁻¹ s⁻¹,668 M⁻¹ s⁻¹,12.7 µM,370 M⁻¹ s⁻¹,> 50 µM,19 µM
CC(C)[C@H](NC(=O)COc1cccc2ccccc12)C(=O)N[C@@H](CC(=O)O)C(=O)COc1ccc(C(N)=O)cc1,17700 M⁻¹ s⁻¹,3650 M⁻¹ s⁻¹,–,> 100 µM,744 M⁻¹ s⁻¹,> 50 µM,–
CC(C)[C@H](NC(=O)COc1cccc2ccccc12)C(=O)N[C@@H](CC(=O)O)C(=O)COc1cccc(F)c1F,28800 M⁻¹ s⁻¹,14800 M⁻¹ s⁻¹,197 M⁻¹ s⁻¹,–,1610 M⁻¹ s⁻¹,5.2 µM,–
CC(C)[C@H](NC(=O)COc1cccc2ccccc12)C(=O)N[C@@H](CC(=O)O)C(=O)COC(=O)c1c(Cl)cccc1Cl,725000 M⁻¹ s⁻¹,52100 M⁻¹ s⁻¹,17000 M⁻¹ s⁻¹,10.6 µM,56900 M⁻¹ s⁻¹,2.15 µM,11.5 µM
CC(C)[C@H](NC(=O)COc1cccc2ccccc12)C(=O)N[C@@H](CC(=O)O)C(=O)COc1c(F)c(F)c(-c2c(F)c(F)c(F)c(F)c2F)c(F)c1F,52100 M⁻¹ s⁻¹,6680 M⁻¹ s⁻¹,10400 M⁻¹ s⁻¹,20 µM,27000 M⁻¹ s⁻¹,> 50 µM,40 µM
CC(C)[C@H](NC(=O)COc1cccc2ccccc12)C(=O)N[C@@H](CC(=O)O)C(=O)COc1cc(F)cc(F)c1F,60100 M⁻¹ s⁻¹,14700 M⁻¹ s⁻¹,1470 M⁻¹ s⁻¹,30 µM,1510 M⁻¹ s⁻¹,3.75 µM,11.2 µM
CC(C)[C@H](NC(=O)COc1cccc2ccccc12)C(=O)N[C@@H](CC(=O)O)C(=O)COc1ccc(OC(F)(F)F)cc1,10500 M⁻¹ s⁻¹,2360 M⁻¹ s⁻¹,2420 M⁻¹ s⁻¹,29.1 µM,776 M⁻¹ s⁻¹,> 50 µM,–
CC(C)[C@H](NC(=O)COc1cccc2ccccc12)C(=O)N[C@@H](CC(=O)O)C(=O)COc1ccc(F)c(F)c1,6460 M⁻¹ s⁻¹,1620 M⁻¹ s⁻¹,117 M⁻¹ s⁻¹,> 100 µM,86 M⁻¹ s⁻¹,17 µM,16.2 µM
CC(C)[C@H](NC(=O)COc1cccc2ccccc12)C(=O)N[C@@H](CC(=O)O)C(=O)COc1cccc(C(F)(F)F)c1,7980 M⁻¹ s⁻¹,2450 M⁻¹ s⁻¹,150 M⁻¹ s⁻¹,> 100 µM,–,> 50 µM,16.6 µM
CC(C)[C@H](NC(=O)COc1cccc2ccccc12)C(=O)N[C@@H](CC(=O)O)C(=O)COc1c(F)cccc1F,200000 M⁻¹ s⁻¹,53900 M⁻¹ s⁻¹,9080 M⁻¹ s⁻¹,2.04 µM,9980 M⁻¹ s⁻¹,2.4 µM,> 100 µM
CC(C)[C@H](NC(=O)COc1cccc2ccccc12)C(=O)N[C@@H](CC(=O)O)C(=O)COc1ccc(F)cc1,8560 M⁻¹ s⁻¹,9120 M⁻¹ s⁻¹,699 M⁻¹ s⁻¹,> 100 µM,–,> 50 µM,14.3 µM
CC(C)[C@H](NC(=O)COc1cccc2ccccc12)C(=O)N[C@@H](CC(=O)O)C(=O)COc1ccc(F)cc1F,21700 M⁻¹ s⁻¹,8400 M⁻¹ s⁻¹,628 M⁻¹ s⁻¹,33.2 µM,–,> 50 µM,17.6 µM
CC(C)[C@H](NC(=O)COc1cccc2ccccc12)C(=O)N[C@@H](CC(=O)O)C(=O)COc1c(Cl)cccc1Cl,179000 M⁻¹ s⁻¹,25300 M⁻¹ s⁻¹,2710 M⁻¹ s⁻¹,3 µM,87700 M⁻¹ s⁻¹,2.75 µM,15.3 µM
CC(C)[C@H](NC(=O)COc1cccc2ccccc12)C(=O)N[C@@H](CC(=O)O)C(=O)COc1ccc(C(F)(F)F)cc1,13200 M⁻¹ s⁻¹,2580 M⁻¹ s⁻¹,196 M⁻¹ s⁻¹,> 100 µM,77 M⁻¹ s⁻¹,> 50 µM,12.3 µM
CC(C)[C@H](NC(=O)COc1cccc2ccccc12)C(=O)N[C@@H](CC(=O)O)C(=O)COc1cccc(C(F)(F)F)c1F,33900 M⁻¹ s⁻¹,7220 M⁻¹ s⁻¹,1030 M⁻¹ s⁻¹,50.4 µM,683 M⁻¹ s⁻¹,3.7 µM,18.2 µM
CC(C)[C@H](NC(=O)COc1cccc2ccccc12)C(=O)N[C@@H](CC(=O)O)C(=O)COc1c(F)cc(F)cc1F,114000 M⁻¹ s⁻¹,20700 M⁻¹ s⁻¹,9080 M⁻¹ s⁻¹,6.84 µM,5140 M⁻¹ s⁻¹,2.35 µM,14.9 µM
CC(C)[C@H](NC(=O)COc1cccc2ccccc12)C(=O)N[C@@H](CC(=O)O)C(=O)COc1cccc(OC(F)(F)F)c1,30600 M⁻¹ s⁻¹,1410 M⁻¹ s⁻¹,359 M⁻¹ s⁻¹,> 100 µM,–,> 50 µM,15.4 µM
CC(C)[C@H](NC(=O)COc1cccc2ccccc12)C(=O)N[C@@H](CC(=O)O)C(=O)COP(=O)(c1ccccc1)c1ccccc1,351000 M⁻¹ s⁻¹,143000 M⁻¹ s⁻¹,59300 M⁻¹ s⁻¹,18.4 µM,39700 M⁻¹ s⁻¹,–,3.48 µM
CC(C)[C@H](NC(=O)COc1cccc2ccccc12)C(=O)N[C@@H](CC(=O)O)C(=O)COc1ccccc1[N+](=O)[O-],73000 M⁻¹ s⁻¹,23500 M⁻¹ s⁻¹,1810 M⁻¹ s⁻¹,> 100 µM,10700 M⁻¹ s⁻¹,5.85 µM,27.7 µM
CC(C)[C@H](NC(=O)COc1cccc2ccccc12)C(=O)N[C@@H](CC(=O)O)C(=O)COc1cccc(F)c1,17800 M⁻¹ s⁻¹,2730 M⁻¹ s⁻¹,461 M⁻¹ s⁻¹,> 100 µM,48 M⁻¹ s⁻¹,> 50 µM,12 µM
CC(=O)Nc1cccc(OCC(=O)[C@H](CC(=O)O)NC(=O)[C@@H](NC(=O)COc2cccc3ccccc23)C(C)C)c1,4900 M⁻¹ s⁻¹,612 M⁻¹ s⁻¹,–,> 100 µM,–,> 50 µM,–
CC(C)[C@H](NC(=O)COc1cccc2ccccc12)C(=O)N[C@@H](CC(=O)O)C(=O)COc1cc(F)c(F)cc1F,24400 M⁻¹ s⁻¹,11400 M⁻¹ s⁻¹,668 M⁻¹ s⁻¹,39.3 µM,634 M⁻¹ s⁻¹,4.16 µM,16.7 µM
CC(C)[C@H](NC(=O)COc1cccc2ccccc12)C(=O)N[C@@H](CC(=O)O)C(=O)COc1ccccc1F,26800 M⁻¹ s⁻¹,6020 M⁻¹ s⁻¹,233 M⁻¹ s⁻¹,> 100 µM,–,15 µM,15.7 µM
CC(C)[C@H](NC(=O)COc1cccc2ccccc12)C(=O)N[C@@H](CC(=O)O)C(=O)COc1cc(F)cc(F)c1,9240 M⁻¹ s⁻¹,2170 M⁻¹ s⁻¹,154 M⁻¹ s⁻¹,> 100 µM,106 M⁻¹ s⁻¹,11.6 µM,15.9 µM
CC(C)[C@H](NC(=O)COc1cccc2ccccc12)C(=O)N[C@@H](CC(=O)O)C(=O)COc1cc(F)ccc1F,49000 M⁻¹ s⁻¹,12100 M⁻¹ s⁻¹,483 M⁻¹ s⁻¹,> 100 µM,1330 M⁻¹ s⁻¹,4.85 µM,19.7 µM
CC(C)[C@H](NC(=O)COc1cccc2ccccc12)C(=O)N[C@@H](CC(=O)O)C(=O)COc1c(F)ccc(F)c1F,188000 M⁻¹ s⁻¹,47100 M⁻¹ s⁻¹,17000 M⁻¹ s⁻¹,1.2 µM,81700 M⁻¹ s⁻¹,2.43 µM,–
CC(C)[C@H](NC(=O)COc1cccc2ccccc12)C(=O)N[C@@H](CC(=O)O)C(=O)COc1ccc2oc(=O)sc2c1,5890 M⁻¹ s⁻¹,2240 M⁻¹ s⁻¹,130 M⁻¹ s⁻¹,> 100 µM,81 M⁻¹ s⁻¹,–,25.7 µM
CC(C)[C@H](NC(=O)COc1cccc2ccccc12)C(=O)N[C@@H](CC(=O)O)C(=O)COc1cc(C(F)(F)F)cc(C(F)(F)F)c1,5350 M⁻¹ s⁻¹,783 M⁻¹ s⁻¹,68 M⁻¹ s⁻¹,> 100 µM,193 M⁻¹ s⁻¹,> 50 µM,–
CC(C)[C@H](NC(=O)COc1cccc2ccccc12)C(=O)N[C@@H](CC(=O)O)C(=O)COc1c(F)c(F)c(F)c(F)c1F,56600 M⁻¹ s⁻¹,14700 M⁻¹ s⁻¹,8040 M⁻¹ s⁻¹,3.05 µM,13600 M⁻¹ s⁻¹,–,8.89 µM
